Assays:
Assay in all cases: HDAC Enzyme Activity Assay
[1] = biological target: T1, Histone deacetylase 6 (Mus musculus, UniProt Q9Z2V5)
T1 sequence (Q9Z2V5 whole entry): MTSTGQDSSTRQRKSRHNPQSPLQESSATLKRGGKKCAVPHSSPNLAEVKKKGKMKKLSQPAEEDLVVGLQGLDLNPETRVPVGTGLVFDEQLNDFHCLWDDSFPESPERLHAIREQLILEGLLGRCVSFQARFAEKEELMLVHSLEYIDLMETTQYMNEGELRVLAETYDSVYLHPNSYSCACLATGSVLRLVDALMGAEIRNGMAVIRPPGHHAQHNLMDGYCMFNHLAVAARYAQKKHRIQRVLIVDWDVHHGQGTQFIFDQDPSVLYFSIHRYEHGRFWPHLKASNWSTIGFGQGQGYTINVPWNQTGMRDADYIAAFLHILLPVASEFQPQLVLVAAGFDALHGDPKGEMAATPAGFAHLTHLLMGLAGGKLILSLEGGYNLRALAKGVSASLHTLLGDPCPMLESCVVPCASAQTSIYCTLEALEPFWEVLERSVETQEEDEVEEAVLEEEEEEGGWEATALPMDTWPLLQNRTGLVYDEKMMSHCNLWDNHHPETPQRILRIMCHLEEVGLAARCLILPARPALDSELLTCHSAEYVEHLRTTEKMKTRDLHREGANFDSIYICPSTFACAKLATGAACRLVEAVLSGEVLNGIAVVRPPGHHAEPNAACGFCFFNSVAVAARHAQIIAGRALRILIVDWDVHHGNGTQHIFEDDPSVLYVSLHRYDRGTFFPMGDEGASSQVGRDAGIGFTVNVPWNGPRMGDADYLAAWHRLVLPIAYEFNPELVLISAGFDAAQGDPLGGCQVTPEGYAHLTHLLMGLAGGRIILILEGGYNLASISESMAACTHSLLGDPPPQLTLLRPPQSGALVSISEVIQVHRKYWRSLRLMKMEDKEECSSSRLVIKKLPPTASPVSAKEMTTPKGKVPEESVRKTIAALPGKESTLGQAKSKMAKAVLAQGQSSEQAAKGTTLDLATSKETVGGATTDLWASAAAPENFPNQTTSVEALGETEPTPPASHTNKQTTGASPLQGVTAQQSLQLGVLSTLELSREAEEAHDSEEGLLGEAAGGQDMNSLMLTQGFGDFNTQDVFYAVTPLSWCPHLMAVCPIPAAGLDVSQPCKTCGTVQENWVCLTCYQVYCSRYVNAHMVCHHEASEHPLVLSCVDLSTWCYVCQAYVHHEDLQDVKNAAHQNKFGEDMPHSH
Description: (§1) For the enzyme assay, 10 µL of the enzyme fraction was added to 1 µL of fluorescent substrate (2 mM Ac-KGLGK(Ac)-MCA) and 9 µL of histone deacetylase buffer, and the mixture was incubated at 37 °C for 30 min. The reaction was stopped by the addition of 30 µL of trypsin (20 mg/mL) and incubated at 37 °C for 15 min. The released amino methyl coumarin (AMC) was measured using a fluorescence plate reader. DTT was added simultaneously with drugs to the enzyme solutions

[2] = biological target: Histone deacetylase 1 (Homo sapiens, UniProt Q13547)
Description: as §1

[3] = biological target: Histone deacetylase 4 (Homo sapiens, UniProt P56524)
Description: as §1

Sequence of Histone deacetylase 1 (Q13547 whole entry): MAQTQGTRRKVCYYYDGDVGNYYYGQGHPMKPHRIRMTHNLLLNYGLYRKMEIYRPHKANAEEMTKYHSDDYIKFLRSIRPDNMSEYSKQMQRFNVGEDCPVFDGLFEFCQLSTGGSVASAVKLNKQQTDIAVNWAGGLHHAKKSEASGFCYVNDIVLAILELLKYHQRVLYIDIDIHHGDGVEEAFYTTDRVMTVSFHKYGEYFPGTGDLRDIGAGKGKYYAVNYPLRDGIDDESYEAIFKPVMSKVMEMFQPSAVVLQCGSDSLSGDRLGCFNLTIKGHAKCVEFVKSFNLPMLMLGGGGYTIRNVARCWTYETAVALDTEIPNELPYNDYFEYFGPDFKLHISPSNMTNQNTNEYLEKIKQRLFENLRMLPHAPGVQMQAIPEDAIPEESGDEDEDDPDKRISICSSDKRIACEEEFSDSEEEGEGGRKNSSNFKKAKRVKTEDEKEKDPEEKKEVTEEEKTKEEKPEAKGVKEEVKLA
Sequence of Histone deacetylase 4 (P56524 whole entry): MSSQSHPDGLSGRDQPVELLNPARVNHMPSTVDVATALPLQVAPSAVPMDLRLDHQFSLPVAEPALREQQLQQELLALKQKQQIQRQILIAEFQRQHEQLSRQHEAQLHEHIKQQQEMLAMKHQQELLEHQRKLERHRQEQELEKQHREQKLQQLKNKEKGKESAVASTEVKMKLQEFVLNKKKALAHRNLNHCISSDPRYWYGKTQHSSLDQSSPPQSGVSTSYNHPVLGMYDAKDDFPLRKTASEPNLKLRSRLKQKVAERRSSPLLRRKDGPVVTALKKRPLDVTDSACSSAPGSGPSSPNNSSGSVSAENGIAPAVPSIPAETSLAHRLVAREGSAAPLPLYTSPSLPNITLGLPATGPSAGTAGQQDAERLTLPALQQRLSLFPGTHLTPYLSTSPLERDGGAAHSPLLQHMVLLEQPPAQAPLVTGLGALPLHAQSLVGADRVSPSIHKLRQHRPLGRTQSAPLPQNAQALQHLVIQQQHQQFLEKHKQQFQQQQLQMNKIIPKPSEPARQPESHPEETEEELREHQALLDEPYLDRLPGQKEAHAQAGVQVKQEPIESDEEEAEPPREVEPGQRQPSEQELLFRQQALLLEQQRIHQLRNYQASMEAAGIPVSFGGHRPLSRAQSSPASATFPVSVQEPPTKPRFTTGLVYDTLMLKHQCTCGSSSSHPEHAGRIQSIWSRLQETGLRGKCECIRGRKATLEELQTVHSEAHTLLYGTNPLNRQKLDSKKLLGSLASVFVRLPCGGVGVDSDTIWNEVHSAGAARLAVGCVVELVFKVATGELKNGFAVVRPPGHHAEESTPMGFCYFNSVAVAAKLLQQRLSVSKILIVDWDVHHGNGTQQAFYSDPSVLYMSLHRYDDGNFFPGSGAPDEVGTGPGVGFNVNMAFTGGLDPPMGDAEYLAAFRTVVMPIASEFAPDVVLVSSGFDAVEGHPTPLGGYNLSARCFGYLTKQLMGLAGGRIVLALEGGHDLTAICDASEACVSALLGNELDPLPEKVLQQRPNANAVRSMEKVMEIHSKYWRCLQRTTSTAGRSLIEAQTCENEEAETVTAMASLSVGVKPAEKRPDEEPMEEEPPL

Row | IC50 [1] [nM] | IC50 [2] [nM] | IC50 [3] [nM] | SMILES
1 | 34 | 47 | 18 | CC(=O)SCCCCC[C@H](NC(=O)OCc1ccccc1)C(=O)Nc1cccc2cccnc12 [Z-L-Am7(Ac)-QA (1)]
2 | 3.2 | 4.9 | 2 | O=C(N[C@@H](CCCCCSSCCO)C(=O)Nc1cccc2cccnc12)OCc1ccccc1 [Z-L-Am7(betaMe)-QA (3)]
3 | 7.5 | 8.2 | 3.4 | O=C(NC(CCCCCSSCCCCC[C@H](NC(=O)OCc1ccccc1)C(=O)Nc1cccc2cccnc12)C(=O)Nc1cccc2cccnc12)OCc1ccccc1 (stereo partly drawn) [(Z-L-Am7(S-)-QA)2 (4)]
4 | 29 | 19 | 18 | COCCOCC(=O)SCCCCC[C@H](NC(=O)OCc1ccccc1)C(=O)Nc1cccc2cccnc12 [Z-L-Am7(AcEtMe)-QA (2)]
5 | 45 | 10 | 11 | O=C(CCCCC[C@H](NC(=O)OCc1ccccc1)C(=O)Nc1cccc2cccnc12)NO [(S)-benzyl 8-(hydroxyamino)-1,8-dioxo-1-(quinolin-8-ylamino)octan-2-ylcarbamate]

Reference: BindingDB's records for doi:10.1016/j.bioorg.2015.02.009 (Kyushu Institute of Technology, 2015)
